Measured values taken from patent US11266626B2, “Reduction of ER-MAM-localized APP-C99 and methods of treating alzheimer's disease” (THE TRUSTEES OF COLUMBIA UNIVERSITY IN THE CITY OF NEW YORK, priority 2015, dated 2022).
“Also recorded” adds a separate entry of the source.

Assays:
PS-DKO cells [1] = test: Staining of lipid droplets with LipidTox Green; format: cell-based, mouse; details: BI 100 nM, desipramine 10 μM, GW4869 5 μM, 12-16 h, Gleevec 10 μM
Procedure: (§1) Quantification of total cholesterol and cholesteryl esters was performed using the Cholesterol/Cholesteryl Ester Quantitation kit from Calbiochem (428901). Staining of lipid droplets Staining of lipid droplets was performed using HCS LipidTox™ Deep Green neutral lipid stain (Invitrogen H34475) according to the manufacturer's instructions. Lipid droplet staining was quantified using ImageJ. The different values represent the product of the intensity and the area covered by the fluorescent signal above background in every cell examined.
(§2) Staining of lipid droplets was performed using HCS LipidTox™ Deep Green neutral lipid stain (Invitrogen H34475) according to the manufacturer's instructions. Lipid droplet staining was quantified using ImageJ. The different values represent the product of the intensity and the area covered by the fluorescent signal above background in every cell examined.

[2] = system: cortical neurons and astrocytes from PS1-KI M146V mice; test: Staining of lipid droplets with LipidTox Green; format: cell-based, mouse; details: 100 nM BI
Procedure: as §1, §2

PS-DKO cells [3] = test: Lipidomic analyses of membranes; format: cell-based, mouse; details: for ceramide levels / sphingomyelin levels: PS-DKO cells, BI 100 nM or myriocin 5 μM
Procedure: (§3) Lipid extracts were prepared via chloroform-methanol extraction, spiked with appropriate internal standards, and analyzed using a 6490 Triple Quadrupole LC/MS system (Agilent Technologies, Santa Clara, Calif.) as described previously (6, 7). Glycerophospholipids and sphingolipids were separated with normal-phase HPLC using an Agilent Zorbax Rx-Sil column (inner diameter 2.1×100 mm) under the following conditions: mobile phase A (chloroform:methanol:1 M ammonium hydroxide, 89.9:10:0.1, v/v) and mobile phase B (chloroform:methanol:water:ammonium hydroxide, 55:39.9:5:0.1, v/v); 95% A for 2 min, linear gradient to 30% A over 18 min and held for 3 min, and linear gradient to 95% A over 2 min and held for 6 min. Quantification of lipid species was accomplished using multiple reaction monitoring (MRM) transitions that were developed in earlier studies (6) in conjunction with referencing of appropriate internal standards: ceramide d18:1/17:0 and sphingomyelin d18:1/12:0 (Avanti Polar Lipids, Alabaster, Ala.).
as §3, with “Lipids were extracted from equal amounts of material (30 μg protein/sample). Lipid extracts” for “Lipid extracts”, “described previously (Chan et al., 2012). Glycerophospholipids and” for “described previously (6, 7). Glycerophospholipids and”, “hydroxide, 89.9:10:0.1, v/v/v) and mobile” for “hydroxide, 89.9:10:0.1, v/v) and mobile”, “hydroxide, 55:39.9:5:0.1, v/v/v); 95% A” for “hydroxide, 55:39.9:5:0.1, v/v); 95% A”, “earlier studies (Chan et al., 2012) in conjunction” for “earlier studies (6) in conjunction”, “Alabaster, Ala.). Values are represented as mole fraction with respect to total lipid (% molarity)” for “Alabaster, Ala.).”
Lipids were extracted from equal amounts of material (30 μg protein/sample). Lipid extracts were prepared via chloroform-methanol extraction, spiked with appropriate internal standards, and analyzed using a 6490 Triple Quadrupole LC/MS system (Agilent Technologies, Santa Clara, Calif.) as described previously (Chan et al, 2012). Glycerophospholipids and sphingolipids were separated with normal-phase HPLC using an Agilent Zorbax Rx-Sil column (inner diameter 2.1×100 mm) under the following conditions: mobile phase A (chloroform:methanol:1 M ammonium hydroxide, 89.9:10:0.1, v/v/v) and mobile phase B (chloroform:methanol:water:ammonium hydroxide, 55:39.9:5:0.1, v/v/v/v); 95% A for 2 min, linear gradient to 30% A over 18 min and held for 3 min, and linear gradient to 95% A over 2 min and held for 6 min. Quantification of lipid species was accomplished using multiple reaction monitoring (MRM) transitions that were developed in earlier studies (Chan et al, 2012) in conjunction with referencing of appropriate internal standards: ceramide d18:1/17:0 and sphingomyelin d18:1/12:0 (Avanti Polar Lipids, Alabaster, Ala., USA). Values are represented as mole fraction with respect to total lipid (% molarity). For this, lipid mass (in moles) of any specific lipid is normalized by the total mass (in moles) of all the lipids measured (Chan et al, 2012). In addition, all of our results were further normalized by protein content.

PS-DKO cells [4] = test: Analysis of ER-mitochondrial apposition (colocalization of ER and mitochondrial markers); format: cell-based, mouse; details: 100 nM BI, 12-16 h
Procedure: Interactions between mitochondria and ER were performed as described (5).
Cells under were co-transfected with GFP-Sec61-β (Addgene plasmid #15108) and DsRed-Mito (Clontech, #632421) at a 1:1 ratio, using Lipofectamine 2000 (Invitrogen, #11668-027) in serum-free DMEM. Twelve hours post-transfection, cells were analyzed as described (8).
Cells under were co-transfected with GFP-Sec61-β (Addgene plasmid #15108) and DsRed2-Mito (Clontech, #632421) at a 1:1 ratio, using Lipofectamine 2000 (Invitrogen, #11668-027) in serum-free DMEM. Twelve hours post-transfection, cells were analyzed as described (Guardia-Laguarta et al., 2014).
Cells under were co-transfected with GFP-Sec61-β (Addgene plasmid #15108) and DsRed2-Mito (Clontech, #632421) at a 1:1 ratio, using Lipofectamine 2000 (Invitrogen, #11668-027) in serum-free DMEM. Twelve hours post-transfection, cells were analyzed as described (Guardia-Laguarta et al, 2014).

APP C-terminal fragments = test: Western blot of APP C-terminal fragments in total homogenates; format: cell-based, mouse; details: PS-DKO MEFs total homogenates; BI
Procedure: Purification of ER, MAM, and mitochondria was performed and analyzed as described (4).
Purification of ER, MAM, and mitochondria was performed and analyzed as described Area-Gomez et al., 2009, the contents of which is hereby incorporated by reference in its entirety.
Purification of ER, MAM, and mitochondria was performed and analyzed as described (Area-Gomez et al, 2009). For C99 detection, samples were run in 4-12% Bis-Tris gels (Criterion XT Precast Midi Gels, BioRad) in XT MES buffer.

SH-SY5Y cells = test: Mitochondrial content and biogenesis (VDAC western blot; qRT-PCR); format: cell-based, human

Structure (SMILES)	number of lipid droplets (LDs) (PS-DKO cells [1])	number of lipid droplets (LDs) [2]	ceramide levels (PS-DKO cells [3])	sphingomyelin levels (PS-DKO cells [3])	ceramide levels (PS-DKO cells [3]; listed as BACE1 inhibitor)	sphingomyelin levels (PS-DKO cells [3]; listed as BACE1 inhibitor)	PtdSer content of membranes (PS-DKO cells [3]; PS-DKO membranes, BI)	degree of ER-mitochondrial co-localization (apposition) (PS-DKO cells [4])	accumulation of APP C-terminal fragments (APP C-terminal fragments)	mitochondrial content or biogenesis (SH-SY5Y cells)
C[C@@H](NC(=O)c1cc(C(=O)N[C@@H](Cc2ccccc2)[C@H](O)CNC2CC2)cc(N(C)S(C)(=O)=O)c1)c1ccccc1 [BI, β-secretase inhibitor IV]	reduced the number of LDs	reduced the number of LDs	reversing the alterations in both sphingomyelin (FIG. 46E) and ceramide	reversing the alterations in both sphingomyelin	completely reversed the changes in SM and Cer levels	completely reversed the changes in SM and Cer levels	reduced the PtdSer content of PS-DKO membranes to control levels	reduced the degree of ER-mitochondrial co-localization significantly; also recorded: rescued the upregulation of ER-mitochondria apposition	eliminates the accumulation of APP C-terminal fragments	–
C[C@H](NC(=O)Cc1cc(F)cc(F)c1)C(=O)N[C@H](C(=O)OC(C)(C)C)c1ccccc1 [DAPT]	–	–	–	–	–	–	–	–	–	without altering mitochondrial content or biogenesis
